Reference: US20250235399A1, “METHODS OF PREPARING CARRIER-BASED DRY POWDERS FOR INHALATION” (Board of Regents, The University of Texas System, priority 2022, published 2025)

Columns and labels:
[1] = Geometric particle size of rifampicin blends and starting materials (HELOS laser diffraction, RODOS); type: physicochemical; details: Table 3; for X10 / X50 / X90: particle size distribution
Description: The geometric particle size of the powder blends was measured using laser diffraction (HELOS, Sympatec, Germany) for the pre-blend and after each blending cycle. Measurements were done using a RODOS powder disperser at a pressure drop of 1 bar and rotor speed set at 50% (FIG. 6). […] The particles diameter is expressed as the mean Xn diameter values, where n % of the particles have a diameter≤X. Jaffari, S., et al. Rapid Characterisation of the Inherent Dispersibility of Respirable Powders Using Dry Dispersion Laser Diffraction. Int. J. Pharm. […] A measure of particle size distribution breadth is represented by the calculated factor “Span”. This was calculated using the following expression: (X90−X10)/X50.
Particle size analysis was conducted on blended materials and compared to pre-blend and lactose/magnesium stearate controls.

[2] = Particle size of budesonide blend starting materials (HELOS/RODOS laser diffraction); type: physicochemical; details: RODOS laser diffraction, 3 bar, 50% rotation
Description: Particle size distribution of alpha-lactose monohydrate, magnesium stearate and budesonide were analyzed using a laser diffractometer (Sympatec, Clausthal-Zellerfeld, Germany). […] About 0.5 g of each component was carefully loaded on the turntable of the vibratory feeding module. Samples were dispersed at 3 bar and 50% rotation (FIG. 11). Data was acquired using Windox software (Sympatec, Clausthal-Zellerfeld, Germany) and volume-based size distribution was calculated using Fraunhofer theory.
Table 6 lists the particle size distribution for starting materials as determined by laser diffraction. Budesonide was confirmed to be sufficiently micronized (e.g. less than 5 μm). Magnesium stearate and lactose size distributions were within the size ranges provided by manufacturers.

Molecule | X10 [1] [μm] | X50 [1] [μm] | X90 [1] [μm] | D10 [2] [μm] | D50 [2] [μm] | D90 [2] [μm] | Span ((X90-X10)/X50) [1]
O.OC[C@H]1O[C@@H](O[C@H]2[C@H](O)[C@@H](O)[C@@H](O)O[C@@H]2CO)[C@H](O)[C@@H](O)[C@H]1O [Lactohale 206] | 1.91 | 4.15 | 116.14 |  |  |  | 
O.OC[C@H]1O[C@@H](O[C@H]2[C@H](O)[C@@H](O)[C@@H](O)O[C@@H]2CO)[C@H](O)[C@@H](O)[C@H]1O [Lactose, Alpha-lactose monohydrate] |  |  |  | 32.09 | 80.34 | 111.84 | 
Magnesium stearate | 2.08 | 8.14 | 17.34 | 1.29 | 4.45 | 9.93 | 1.87
